Where two headings read alike, the source gives them in different places.
Tests used:
MV4;11 cells = assay: Cell viability assay (CellTiter-Glo) in MV4;11 cells, alone or with gilteritinib; assay type: cell-based; details: Homo sapiens, MV4;11 cells, three days, CellTiter-Glo, read-out: MV4
MOLM-13 cells = assay: Cell viability assay (CellTiter-Glo) in MOLM-13 cells, alone or with gilteritinib; assay type: cell-based; details: Homo sapiens, MOLM-13 cells, three days, CellTiter-Glo
[1] = MV4-11, 72 h, compound alone (without gilteritinib), 11 IC50
[2] = MV4-11, 72 h, with gilteritinib 10 nM, 11 IC50 gilteritinib
[3] = MOLM-13, 72 h, compound alone (without gilteritinib), read-out: MOLM-13 IC50
[4] = MOLM-13, 72 h, with gilteritinib 20 nM, read-out: MOLM-13 IC50 gilteritinib
[5] = 72 h, compound alone (without gilteritinib), 11 IC50
[6] = 72 h, compound alone (without gilteritinib), read-out: MOLM-13 IC50
[7] = MV4-11, 72 h, compound with gilteritinib 10 nM, 11 IC50 gilteritinib
[8] = MOLM-13, 72 h, compound with gilteritinib 20 nM, read-out: MOLM-13 IC50 gilteritinib

Row | IC50 (MV4;11 cells; [1]) [nM] | IC50 (MV4;11 cells; [2]) [nM] | IC50 (MOLM-13 cells; [3]) [nM] | IC50 (MOLM-13 cells; [4]) [nM] | SMILES | further results
1 | 10 to 100 | 10 to 100 | 100 to 1000 | 10 to 100 | O=C1CCC(N2C(=O)c3ccc(NCCC[C@H]4C[C@H](n5cc(-c6cnc7ccc(Cl)cc7n6)cn5)C4)cc3C2=O)C(=O)N1 (stereo partly drawn) [GS-206, 5-((3-(trans-3-(4-(7-Chloroquinoxalin-2-yl)-1H-pyrazol-1-yl)cyclobutyl)propyl)amino)-2-(2,6-dioxopiperidin-3-yl)isoindoline-1,3-dione] | –
2 | 100 to 1000 | 10 to 100 | > 1000 | 10 to 100 | O=C1CCC(N2Cc3cc(CCCCCCCn4cc(-c5cnc6ccccc6n5)cn4)ccc3C2=O)C(=O)N1 (centres unmarked) [GS-375, 3-(1-Oxo-5-(7-(4-(quinoxalin-2-yl)-1H-pyrazol-1-yl)heptyl)isoindolin-2-yl)piperidine-2,6-dione] | –
3 | > 1000 | > 1000 | 100 to 1000 | > 1000 | O=C1CCC(N2Cc3c(Nc4ccnc(Nc5ccc(N6CCC(n7cc(-c8cnc9ccccc9n8)cn7)CC6)cc5)n4)cccc3C2=O)C(=O)N1 (centres unmarked) [GS-027, 3-(1-Oxo-4-((2-((4-(4-(4-(quinoxalin-2-yl)-1H-pyrazol-1-yl)piperidin-1-yl)phenyl)amino)pyrimidin-4-yl)amino)isoindolin-2-yl)piperidine-2,6-dione] | –
4 | – | – | – | – | O=C1CCC(N2C(=O)c3ccc(NCCC4CC(Cn5cc(-c6cnc7ccccc7n6)cn5)C4)cc3C2=O)C(=O)N1 (centres unmarked) [GS-558, 2-(2,6-Dioxopiperidin-3-yl)-5-((2-(3-((4-(quinoxalin-2-yl)-1H-pyrazol-1-yl)methyl)cyclobutyl)ethyl)amino)isoindoline-1,3-dione] | IC50 (MV4;11 cells; [5]): 100 to 1000 nM; IC50 (MV4;11 cells; 72 h, compound with gilteritinib 10 nM, 11 IC50 gilteritinib): 100 to 1000 nM; IC50 (MOLM-13 cells; [6]): > 1000 nM; IC50 (MOLM-13 cells; 72 h, compound with gilteritinib 20 nM, read-out: MOLM-13 IC50 gilteritinib): 10 to 100 nM
5 | 100 to 1000 | – | > 1000 | – | O=C1CCC(N2C(=O)c3ccc(NC4CC(n5cc(-c6cnc7ccccc7n6)cn5)C4)cc3C2=O)C(=O)N1 (centres unmarked) [GS-524, 2-(2,6-Dioxopiperidin-3-yl)-5-((3-(4-(quinoxalin-2-yl)-1H-pyrazol-1-yl)cyclobutyl)amino)isoindoline-1,3-dione] | IC50 (MV4;11 cells; [7]): 100 to 1000 nM; IC50 (MOLM-13 cells; [8]): 10 to 100 nM
6 | 100 to 1000 | 10 to 100 | > 1000 | 10 to 100 | O=C1CCC(N2Cc3ccc(CCCCC4CC(n5cc(-c6cnc7ccccc7n6)cn5)C4)cc3C2=O)C(=O)N1 (centres unmarked) [GS-225, 3-(1-Oxo-6-(4-(3-(4-(quinoxalin-2-yl)-1H-pyrazol-1-yl)cyclobutyl)butyl)isoindolin-2-yl)piperidine-2,6-dione] | –
7 | < 10 | – | < 10 | – | O=C1CCC(N2C(=O)c3ccc(NC[C@H]4C[C@H](n5cc(-c6cnc7ccc(N8CCOCC8)cc7n6)c(C6CC6)n5)C4)cc3C2=O)C(=O)N1 (stereo partly drawn) [GS-464, 5-(((trans-3-(3-cyclopropyl-4-(7-morpholinoquinoxalin-2-yl)-1H-pyrazol-1-yl)cyclobutyl)methyl)amino)-2-(2,6-dioxopiperidin-3-yl)isoindoline-1,3-dione] | IC50 (MV4;11 cells; [7]): < 10 nM; IC50 (MOLM-13 cells; [8]): < 10 nM
8 | 10 to 100 | < 10 | 10 to 100 | 10 to 100 | O=C1CCC(N2Cc3c(Nc4ccnc(Nc5ccc(CN6CCC(n7cc(-c8cnc9ccccc9n8)cn7)CC6)cc5)n4)cccc3C2=O)C(=O)N1 (centres unmarked) [GS-031, 3-(1-Oxo-4-((2-((4-((4-(4-(quinoxalin-2-yl)-1H-pyrazol-1-yl)piperidin-1-yl)methyl)phenyl)amino)pyrimidin-4-yl)amino)isoindolin-2-yl)piperidine-2,6-dione] | –
9 | 100 to 1000 | 10 to 100 | 100 to 1000 | 10 to 100 | O=C1CCC(N2C(=O)c3ccc(NC[C@H]4C[C@H](n5cc(-c6cccnc6)c(C6CC6)n5)C4)cc3C2=O)C(=O)N1 (stereo partly drawn) [GS-268, 5-(((trans-3-(3-Cyclopropyl-4-(pyridin-3-yl)-1H-pyrazol-1-yl)cyclobutyl)methyl)amino)-2-(2,6-dioxopiperidin-3-yl)isoindoline-1,3-dione] | –
10 | < 10 | – | 10 to 100 | – | O=C1CCC(N2C(=O)c3ccc(NCCCCCC(=O)N4CCC(n5cc(-c6cnc7ccc(C8=CCNCC8)cc7n6)cn5)CC4)cc3C2=O)C(=O)N1 (centres unmarked) [GS-525, 2-(2,6-Dioxopiperidin-3-yl)-5-((6-oxo-6-(4-(4-(7-(1,2,3,6-tetrahydropyridin-4-yl)quinoxalin-2-yl)-1H-pyrazol-1-yl)piperidin-1-yl)hexyl)amino)isoindoline-1,3-dione] | IC50 (MV4;11 cells; [7]): < 10 nM; IC50 (MOLM-13 cells; [8]): < 10 nM
11 | > 1000 | – | 100 to 1000 | – | O=C1CCC(N2C(=O)c3ccc(NCCCCC(=O)N4CCC(c5cnc6ccccc6n5)CC4)cc3C2=O)C(=O)N1 (centres unmarked) [GS-545, 2-(2,6-Dioxopiperidin-3-yl)-5-((5-oxo-5-(4-(quinoxalin-2-yl)piperidin-1-yl)pentyl)amino)isoindoline-1,3-dione] | IC50 (MV4;11 cells; [7]): 100 to 1000 nM; IC50 (MOLM-13 cells; [8]): 10 to 100 nM
12 | 100 to 1000 | 10 to 100 | 100 to 1000 | 10 to 100 | O=C1CCC(N2C(=O)c3ccc(NC[C@H]4C[C@H](n5cc(-c6cccc(NC7CCOCC7)n6)cn5)C4)cc3C2=O)C(=O)N1 (stereo partly drawn) [GS-218, 2-(2,6-Dioxopiperidin-3-yl)-5-(((trans-3-(4-(6-((tetrahydro-2H-pyran-4-yl)amino)pyridin-2-yl)-1H-pyrazol-1-yl)cyclobutyl)methyl)amino)isoindoline-1,3-dione] | –
13 | > 1000 | > 1000 | > 1000 | > 1000 | O=C1CCC(N2C(=O)c3ccc(NC(=O)COCC(=O)N4CCC(n5cc(-c6cnc7ccccc7n6)cn5)CC4)cc3C2=O)C(=O)N1 (centres unmarked) [GS-342, N-(2-(2,6-Dioxopiperidin-3-yl)-1,3-dioxoisoindolin-5-yl)-2-(2-oxo-2-(4-(4-(quinoxalin-2-yl)-1H-pyrazol-1-yl)piperidin-1-yl)ethoxy)acetamide] | –
14 | > 1000 | > 1000 | > 1000 | 100 to 1000 | CN1CCN(c2ccc3ncc(-c4cnn([C@H]5C[C@@H](CNc6ccc7c(c6)C(=O)N(C6CCC(=O)NC6=O)C7=O)C5)c4)nc3c2)CC1 (stereo partly drawn) [GS-190, 2-(2,6-Dioxopiperidin-3-yl)-5-(((cis-3-(4-(7-(4-methylpiperazin-1-yl)quinoxalin-2-yl)-1H-pyrazol-1-yl)cyclobutyl)methyl)amino)isoindoline-1,3-dione] | –
15 | < 10 | < 10 | < 10 | < 10 | O=C1CCC(N2C(=O)c3ccc(NC[C@H]4C[C@H](n5cc(-c6nccc7ccncc67)c(C6CC6)n5)C4)cc3C2=O)C(=O)N1 (stereo partly drawn) [GS-284, 5-(((trans-3-(3-Cyclopropyl-4-(2,7-naphthyridin-1-yl)-1H-pyrazol-1-yl)cyclobutyl)methyl)amino)-2-(2,6-dioxopiperidin-3-yl)isoindoline-1,3-dione] | –
16 | – | – | – | – | O=C1CCC(N2C(=O)c3ccc(NCCCC(=O)N4CCN(c5ccccn5)CC4)cc3C2=O)C(=O)N1 (centres unmarked) [GS-318, 2-(2,6-Dioxopiperidin-3-yl)-5-((4-oxo-4-(4-(pyridin-2-yl)piperazin-1-yl)butyl)amino)isoindoline-1,3-dione] | IC50 (MV4;11 cells; [5]): 100 to 1000 nM; IC50 (MV4;11 cells; 72 h, with gilteritinib 10 nM, 11 IC50 gilteritinib): 10 to 100 nM; IC50 (MOLM-13 cells; [6]): > 1000 nM; IC50 (MOLM-13 cells; 72 h, with gilteritinib 20 nM, read-out: MOLM-13 IC50 gilteritinib): 10 to 100 nM
17 | 10 to 100 | < 10 | > 1000 | 10 to 100 | O=C1CCC(N2C(=O)c3ccc(NCCC[C@H]4C[C@H](n5cc(-c6ncccc6Cl)cn5)C4)cc3C2=O)C(=O)N1 (stereo partly drawn) [GS-311, 5-((3-(trans-3-(4-(3-Chloropyridin-2-yl)-1H-pyrazol-1-yl)cyclobutyl)propyl)amino)-2-(2,6-dioxopiperidin-3-yl)isoindoline-1,3-dione] | –
18 | > 1000 | > 1000 | > 1000 | > 1000 | O=C1CCC(N2C(=O)c3ccc(NC(=O)COCCC(=O)N4CCC(n5cc(-c6cnc7ccccc7n6)cn5)CC4)cc3C2=O)C(=O)N1 (centres unmarked) [GS-330, N-(2-(2,6-Dioxopiperidin-3-yl)-1,3-dioxoisoindolin-5-yl)-2-(3-oxo-3-(4-(4-(quinoxalin-2-yl)-1H-pyrazol-1-yl)piperidin-1-yl)propoxy)acetamide] | –
19 | 100 to 1000 | – | 100 to 1000 | – | CN1CCN(c2ccc3nc(-c4cnn([C@H]5C[C@@H](CCCNc6ccc7c(c6)C(=O)N(C6CCC(=O)NC6=O)C7=O)C5)c4)cnc3c2)CC1 (stereo partly drawn) [GS-412, 2-(2,6-dioxopiperidin-3-yl)-5-((3-(cis-3-(4-(6-(4-methylpiperazin-1-yl)quinoxalin-2-yl)-1H-pyrazol-1-yl)cyclobutyl)propyl)amino)isoindoline-1,3-dione] | IC50 (MV4;11 cells; [7]): 10 to 100 nM; IC50 (MOLM-13 cells; [8]): 10 to 100 nM
20 | 100 to 1000 | 10 to 100 | > 1000 | 10 to 100 | O=C1CCC(N2C(=O)c3ccc(NC[C@H]4C[C@H](n5cc(-c6cccc(NC7CCC7)n6)c(C6CC6)n5)C4)cc3C2=O)C(=O)N1 (stereo partly drawn) [GS-258, 5-(((trans-3-(4-(6-(Cyclobutylamino)pyridin-2-yl)-3-cyclopropyl-1H-pyrazol-1-yl)cyclobutyl)methyl)amino)-2-(2,6-dioxopiperidin-3-yl)isoindoline-1,3-dione] | –
